Data from patent US8969333B2, “Therapeutic compositions and methods” (The Penn State Research Foundation, priority 2010, dated 2015).
pIC50: −log10 of the molar value.

What was measured:
U2OS p53-shRNA cells = experiment: MTT assay of U2OS cells with or without p53 depletion by shRNA; assay type: cell-based, human; settings: same inhibitor concentration, p<0.02
Method: MTT assays are performed in U2OS cells with or without p53 depletion to analyze the role of p53 in YW3-56 mediated cell growth inhibition and autophagy.
U2OS and S-180 cells were cultured in Dulbecco modified Eagle medium (DMEM) supplemented with 10% fetal bovine serum and 1% penicillin-streptomycin in a 5% CO2 incubator. U2OS p53-shRNA and U2OS Ctrl-shRNA cells were generated as described in Li, P. et al., Regulation of p53 target gene expression by peptidylarginine deiminase 4. Mol Cell Bial 28 (15), 4745-4758 (2008). Concentrations and duration of YW3-56 treatment were performed as specified in the figures and text. For starvation assay, U2OS cells were first cultured in serum-free DMEM for 16 hr, 10% fetal bovine serum and different concentrations of YW3-56 was then added back and cells were further incubated for 8 hr before further analyses. SESN2 siRNA (Santa Cruz) and GFP siRNA (Dharmacon Inc.) were transfected into U2OS cells using the XtremeGene siRNA transfection reagents (Roche Inc.). Cells were incubated in the presence of the siRNA for 48 hr before adding YW3-56 and further incubated for 8 hr before analyses.

PAD4 = PAD4 (Homo sapiens (Human), UniProt Q9UM07); experiment: PAD4 enzyme activity colorimetric assay (citrullination of BAEE); assay type: biochemical; settings: 0.2 μg PAD4, 5 mM BAEE, 37° C.
PAD4, sequence (Q9UM07 whole entry, species assumed): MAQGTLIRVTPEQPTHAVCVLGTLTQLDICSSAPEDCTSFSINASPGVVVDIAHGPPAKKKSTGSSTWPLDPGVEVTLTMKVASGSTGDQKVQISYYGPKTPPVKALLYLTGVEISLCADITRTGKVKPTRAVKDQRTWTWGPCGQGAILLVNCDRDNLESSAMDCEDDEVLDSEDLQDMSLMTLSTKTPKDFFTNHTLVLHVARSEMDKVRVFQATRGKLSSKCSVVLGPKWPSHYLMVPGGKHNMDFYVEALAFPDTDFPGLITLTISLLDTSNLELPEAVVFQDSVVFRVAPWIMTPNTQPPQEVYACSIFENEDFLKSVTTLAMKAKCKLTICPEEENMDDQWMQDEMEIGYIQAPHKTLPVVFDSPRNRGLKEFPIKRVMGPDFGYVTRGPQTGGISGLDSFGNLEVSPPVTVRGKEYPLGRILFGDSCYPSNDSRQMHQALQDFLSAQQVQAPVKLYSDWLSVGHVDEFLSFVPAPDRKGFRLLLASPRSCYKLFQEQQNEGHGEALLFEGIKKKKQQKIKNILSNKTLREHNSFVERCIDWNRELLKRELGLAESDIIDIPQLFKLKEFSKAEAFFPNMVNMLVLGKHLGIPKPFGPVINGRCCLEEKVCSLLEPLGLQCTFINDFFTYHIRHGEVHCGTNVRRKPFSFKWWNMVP
Method: PAD4 enzyme activity assays are conducted to determine PAD4 inhibitory activity. PAD4 inhibition efficacy of the inhibitors is determined using a colorimetric assay for citrullination production.
The inhibition efficacy of PAD4 inhibitors were determined by colorimetric measurement of citrulline generated by PAD4 catalyzed citrullination of BAEE. 0.2 μg PAD4 was pre-incubated with inhibitors in 100 μl buffer containing 50 mM Tris-HCl pH7.6, 5 mM CaCl2, 2 mM DTT for 0.5 hr at 37° C. The reaction was started by the addition of BAEE to 5 mM and halted 1.5 hr later with the addition of 25 μl 5 M HClO4. Then the samples were briefly centrifuged at 12000 rpm for 2 min at 4° C. and the supernatant (120 μl) were assayed for citrulline by mixing with 120 μl reagent A (0.5% w/v diacetyl monoxime and 15% w/v NaCl in water) and 240 μl reagent B (1% w/v antipyrine, 0.15% w/v ferric chloride, 25% v/v H2SO4 and 25% v/v H3PO4). The mixtures were boiled for 15 min and cooled to room temperature in ice bath. The absorbance of the reagent mixtures at 464 nm was measured by Thermo BioMate™ 3 spectrophotometer. Efficacies of inhibitors are indicated as relative PAD4 citrullination activity by normalizing the PAD4 activity without inhibitor treatment to 100%.

S180 cells = experiment: MTT assay of S180 cell growth inhibition; assay type: cell-based; settings: Mus musculus, S-180
Method: Cells were treated with individual compounds at different concentrations for 72 hr in 24-well plates. MTT reagent was added to a final concentration of 0.5 mg/ml and further incubated for 4 hr. The yellow-colored MTT was reduced to insoluble purple-colored Formazan in living cells. Culture medium was removed and DMSO was added to dissolve Formazan into solution. The absorbance of the solution was then measured at 570 nm using a Thermo BioMate™ 3 spectrophotometer.

p53 and its target genes = experiment: RT-qPCR of p53 and its target genes in S180 cells; assay type: cell-based, mouse; settings: concentration dependent
Method: RNA was extracted using RNeasy Mini Kit (Qiagen) per manufacturer's instructions. 1 μg RNA was reverse transcribed into cDNA using qScript cDNA SuperMix (Quanta Biosciences) per manufacturer's instructions. Quantitative PCR was performed using SYBR Green SuperMix (Quanta Biosciences) in StepOnePlus Real-Time PCR System (Applied Biosystems). FIG. 10 is a graph showing p53 and its target gene expression induced in S180 cells by YW3-56 in a concentration dependent manner.

LC3 = experiment: Western blot of LC3 cleavage (autophagy); assay type: cell-based, human; settings: U2OS cells, concentration-dependent
Method: YW3-56 induces cell death by autophagy, a cell death process in which cellular proteins and organelles are degraded by fusion with lysosomes. Cleavage of LC3-I to generate a fast migrating isoform LC3-II is a characteristic autophagy event. LC3 cleavage is induced after YW3-56 treatment in a concentration-dependent manner as shown in the Western blot in FIG. 6. Western blot and immunostaining was performed essentially as described in Li, P. et al., Oncogene 29 (21), 3153-3162 (2010). Antibodies used in Western blot were anti-p53 (Sigma), anti-PAD4, anti-p21 (Sigma), anti-PUMA (Calbiochem), anti-SESN2 (Abeam), anti-p70S6K (Cell Signaling), anti-p70S6K-[…] (Cell Signaling), anti-LC3 (Cell Signaling) and anti-β-actin (Sigma) at appropriate dilutions. Anti-LC3B antibody (Cell Signaling) was used for immunostaining. DNA was stained by the DNA dye Hoechst.

[1] = tested on: Sesn2 promoter (+733 position); experiment: ChIP analysis at the sestrin2 promoter in U2OS cells; assay type: cell-based, human; settings: 8 μM, 8 hr
Method: Chromatin immunoprecipitation experiments are performed to test if p53 and histone Arg modifications directly regulate Sesn2 gene promoter. ChIP experiments were carried out essentially as described in Li, P. et al., Mol. Cell Biol., 28 (15), 4745-4758 (2008). Antibodies used in ChIP were: anti-p53 (Sigma), anti-PAD4, anti-H3Cit (Abeam), anti-H3R17Me (Abeam). Multiple pairs of primers spanning different regions of Sesn2 are designed to identify a p53 binding site at the Sesn2 gene. p53 binding is relatively […] at the +733 position in untreated U2OS cells, while its binding to this site is dramatically elevated after DNA damage induced by UV irradiation. After 8 hr YW3-56 treatment, p53 binding at the +733 position of Sesn2 is increased >4-fold with a concomitant increase of histone H3 Arg17 methylation (H3R17Me) (FIG. 14G, upper panel). In contrast, after YW3-56 treatment, a decrease in PAD4 binding and histone H3 citrullination (H3Cit) at the +733 position is consistently detected. ChIP results support a model in which p53 associates with while PAD4 dissociates from the Sesn2 promoter after YW3-56 treatment, allowing a decrease in H3Cit and an increase in H3R17Me to facilitate Sesn2 expression.
FIG. 14G, ChIP analyses of p53 and PAD4 association as well as histone H3R17Me and H3Cit modifications at the sestrin2 promoter before and after YW3-56 treatment at 8 μM for 8 hr. […]

For CN(C)c1ccc2cc(C(=O)N[C@@H](CCCNC(=N)CCl)C(=O)NCc3ccccc3)ccc2c1 [YW3-56], which “efficacy on cell growth inhibition after p53 depletion” value (U2OS p53-shRNA cells) is on record?
The value was “decreased significantly”.

And the pIC50 (PAD4)?
Its pIC50 is 5.30 to 6.00.

And the pIC50 (S180 cells)?
Its pIC50 is 4.82 to 5.00.

And the “expression of p53 and its target genes including SESN1 and SESN2” value (p53 and its target genes)?
The value was “induced the expression”.

What about the LC3 cleavage (LC3) of the same molecule?
The LC3 cleavage was “induced”.

And the “PAD4 binding and histone H3 citrullination (H3Cit) at the +733 position” value [1]?
Its value is “decrease”.

What about the “p53 binding at the +733 position of Sesn2, increase” value [1] of the same molecule?
Its value is greater than 4 fold.
